From US6737383B1, “Herbicidal oxadiazolidines” (priority 1999, dated 2004)

How the values were obtained:
corn = assay: Test B pre/postemergence corn; assay type: in vivo, Zea mays
From the text: (§1) Seeds of bedstraw (Galium aparine), blackgrass (Alopecurus myosuroides), surinam grass (Brachiaria decumbens), cocklebur (Xanthium strumarium), corn (Zea mays), crabgrass (Digitaria sanguinalis), giant foxtail (Setaria faberii), morningglory (Ipomoea hederacea), pigweed (Amaranthus retroflexus), rape (Brassica napus), soybean (Glycine max), sugar beet (Beta vulgaris), velvetleaf (Abutilon theophrasti), wheat (Triticum aestivum), wild oat (Avena fatua) and purple nutsedge (Cyperus rotundus) tubers were planted and treated preemnergence with test chemicals formulated in a non-phytotoxic solvent mixture which included a surfactant.
(§2) At the same time, these crop and weed species were also treated with postemergence applications of test chemicals formulated in the same manner. Plants ranged in height from 2 to 18 cm (1- to 4-leaf stage) for postemergence treatments. Plant species in the flood test consisted of rice (Oryza sativa), smallflower flatsedge (Cyperus difformis), duck salad (Heteranthera limosa) and bamyardgrass (Echinochloa crus-galli) grown to the 2-leaf stage for testing. Treated plants and controls were maintained in a greenhouse for twelve to sixteen days, after which all species were compared to controls and visually evaluated. Plant response ratings, summarized in Table B, are based on a scale of 0 to 10 where 0 is no effect and 10 is complete control. A dash (−) response means no test result.

blackgrass = assay: Test B pre/postemergence blackgrass; assay type: in vivo, Alopecurus myosuroides
From the text: as §1, §2

crabgrass = assay: Test B pre/postemergence crabgrass; assay type: in vivo, Digitaria sanguinalis
From the text: as §1, §2

cocklebur = assay: Test B pre/postemergence cocklebur; assay type: in vivo, Xanthium strumarium
From the text: as §1, §2

rape = assay: Test B pre/postemergence rape; assay type: in vivo, Brassica napus
From the text: as §1, §2

surinam grass = assay: Test B pre/postemergence surinam grass; assay type: in vivo, Brachiaria decumbens
From the text: as §1, §2

purple nutsedge = assay: Test B pre/postemergence purple nutsedge; assay type: in vivo, Cyperus rotundus
From the text: as §1, §2

soybean = assay: Test B pre/postemergence soybean; assay type: in vivo, Glycine max
From the text: as §1, §2

velvetleaf = assay: Test B pre/postemergence velvetleaf; assay type: in vivo, Abutilon theophrasti; settings: for Plant response rating, Velvetleaf: Rate 250 g/ha
From the text: as §1, §2

wheat = assay: Test B pre/postemergence wheat; assay type: in vivo, Triticum aestivum; settings: for Plant response rating, Wheat: Rate 250 g/ha
From the text: as §1, §2

pigweed = assay: Test B pre/postemergence pigweed; assay type: in vivo, Amaranthus retroflexus
From the text: as §1, §2

morningglory = assay: Test B pre/postemergence morningglory; assay type: in vivo, Ipomoea hederacea
From the text: as §1, §2

wild oat = assay: Test B pre/postemergence wild oat; assay type: in vivo, Avena fatua; settings: for Plant response rating, Wild oats: Rate 250 g/ha
From the text: as §1, §2

bedstraw = assay: Test B pre/postemergence bedstraw; assay type: in vivo, Galium aparine; settings: Preemergence
From the text: as §1, §2

giant foxtail = assay: Test B pre/postemergence giant foxtail; assay type: in vivo, Setaria faberii
From the text: as §1, §2

sugar beet = assay: Test B pre/postemergence sugar beet; assay type: in vivo, Beta vulgaris; settings: for Plant response rating, Sugarbeets: Rate 250 g/ha
From the text: as §1, §2

[1] = Postemergence, Rate 62 g/ha, scale 0 to 10, 0 is no effect, 10 is complete control
[2] = Postemergence, Rate 125 g/ha, scale of 0 to 10 where 0 is no effect and 10 is complete control
[3] = Postemergence, Rate 250 g/ha, scale 0 to 10, 0 no effect, 10 complete control
[4] = Preemergence, Rate 62 g/ha, scale 0 to 10 (0 no effect, 10 complete control)
[5] = Preemergence, Rate 125 g/ha, scale 0 to 10 (0 no effect, 10 complete control)
[6] = Preemergence, Rate 250 g/ha, scale of 0 to 10 where 0 is no effect and 10 is complete control
[7] = Preemergence, Rate 500 g/ha, scale 0 (no effect) to 10 (complete control)
[8] = Rate 500 g/ha, Postemergence, scale 0 to 10, 0 no effect, 10 complete control
[9] = Rate 250 g/ha, Postemergence, scale 0 to 10, 0 is no effect, 10 is complete control
[10] = Preemergence, Rate 125 g/ha, 0 is no effect, 10 is complete control
[11] = Preemergence, scale of 0 to 10 where 0 is no effect and 10 is complete control
[12] = Postemergence, scale 0 to 10, 0 is no effect, 10 is complete control

CCCn1c(=O)on(C(=O)N(c2ccccc2)C(C)C)c1=O [Compound 92]
3: Cocklebur plant response rating (cocklebur; [8]) | Rape plant response rating (rape; [2]) | B. signalgrass plant response rating (surinam grass; [1]) | Soybean plant response rating (soybean; [1]) | Soybean plant response rating (soybean; [2]) | Plant response rating, Soybean (soybean; [5]) | Plant response rating, Soybean (soybean; [9]) | Wheat plant response rating (wheat; [4]) | Redroot pigweed plant response rating (pigweed; [2]) | Morningglory plant response rating (morningglory; [7])
8: Blackgrass plant response rating (blackgrass; [8]) | Crabgrass plant response rating (crabgrass; [2]) | Crabgrass plant response rating (crabgrass; [4]) | Plant response rating, Crabgrass (crabgrass; [6]) | Velvetleaf plant response rating (velvetleaf; [7]) | Morningglory plant response rating (morningglory; [2]) | Wild oats plant response rating (0 to 10 scale) (wild oat; [10]) | Giant foxtail plant response rating (giant foxtail; [1]) | Giant foxtail plant response rating (giant foxtail; [2]) | Plant response rating, Sugarbeets (sugar beet; [11])
4: Corn plant response rating (corn; [8]) | Rape plant response rating (rape; [3]) | Rape plant response rating (rape; [4]) | Plant response rating, Soybean (soybean; [6]) | Velvetleaf plant response rating (velvetleaf; [4]) | Plant response rating, Redroot pigweed (pigweed; [9]) | Sugarbeets plant response rating (sugar beet; [2])
9: Corn plant response rating (corn; [7]) | Blackgrass plant response rating (blackgrass; [4]) | Crabgrass plant response rating (crabgrass; [3]) | Crabgrass plant response rating (crabgrass; [8]) | Plant response rating, Rape (rape; [5]) | Soybean plant response rating (soybean; [7]) | Plant response rating, Redroot pigweed (pigweed; [6]) | Plant response rating, Wild oats (wild oat; [11]) | Giant foxtail plant response rating (giant foxtail; [3]) | Giant foxtail plant response rating (giant foxtail; [8]) | Sugarbeets plant response rating (sugar beet; [7])
0: Corn plant response rating (corn; [1]) | Corn plant response rating (corn; [2]) | Corn plant response rating (corn; [3]) | Corn plant response rating (corn; [4]) | Cocklebur plant response rating (cocklebur; [1]) | Cocklebur plant response rating (cocklebur; [4]) | Plant response rating, Cocklebur (cocklebur; [6]) | Nutsedge plant response rating (purple nutsedge; [1]) | Nutsedge plant response rating (purple nutsedge; [2]) | Nutsedge plant response rating (purple nutsedge; [3]) | Nutsedge plant response rating (purple nutsedge; [4]) | Plant response rating, Nutsedge (purple nutsedge; [5]) | Plant response rating, Nutsedge (purple nutsedge; [6]) | Nutsedge plant response rating (purple nutsedge; [7]) | Soybean plant response rating (soybean; [4]) | Velvetleaf plant response rating (velvetleaf; [1]) | Velvetleaf plant response rating (velvetleaf; [2]) | Plant response rating, Velvetleaf (velvetleaf; [12]) | Wheat plant response rating (wheat; [1]) | Morningglory plant response rating (morningglory; [4]) | Plant response rating, Morningglory (morningglory; [5]) | Plant response rating, Morningglory (morningglory; [6]) | Wild oats plant response rating (wild oat; [1]) | Bedstraw plant response rating (bedstraw; Rate 62 g/ha, scale 0 to 10 (0 no effect, 10 complete control)) | Plant response rating, Bedstraw (bedstraw; Rate 125 g/ha, scale 0 to 10 (0 no effect, 10 complete control)) | Plant response rating, Bedstraw (bedstraw; Rate 250 g/ha, scale of 0 to 10 where 0 is no effect and 10 is complete control)
1: Cocklebur plant response rating (cocklebur; [2]) | Wild oats plant response rating (wild oat; [2]) | Plant response rating, Wild oats (wild oat; [12]) | Bedstraw plant response rating (bedstraw; Rate 500 g/ha, scale 0 (no effect) to 10 (complete control)) | Sugarbeets plant response rating (sugar beet; [1])
5: Plant response rating, Corn (corn; [6]) | B. signalgrass plant response rating (surinam grass; Rate 125 g/ha, Postemergence, scale 0 to 10, 0 no effect, 10 complete control) | Soybean plant response rating (soybean; [8]) | Plant response rating, Wheat (wheat; [12]) | Redroot pigweed plant response rating (pigweed; [8]) | Wild oats plant response rating (wild oat; [8])
6: Crabgrass plant response rating (crabgrass; [1]) | Rape plant response rating (rape; [8]) | Velvetleaf plant response rating (0 to 10 scale) (velvetleaf; [10]) | Plant response rating, Velvetleaf (velvetleaf; [11]) | Wheat plant response rating (0 to 10 scale) (wheat; [10]) | Wheat plant response rating (wheat; [8]) | Sugarbeets plant response rating (0 to 10 scale) (sugar beet; [10]) | Plant response rating, Sugarbeets (sugar beet; [12]) | Sugarbeets plant response rating (sugar beet; [8])
7: Blackgrass plant response rating (blackgrass; [1]) | Blackgrass plant response rating (blackgrass; [2]) | Blackgrass plant response rating (blackgrass; [3]) | B. signalgrass plant response rating (surinam grass; [3]) | B. signalgrass plant response rating (surinam grass; Rate 500 g/ha, Postemergence, scale of 0 to 10 where 0 is no effect and 10 is complete control) | Plant response rating, Wheat (wheat; [11]) | Wheat plant response rating (wheat; [7]) | Plant response rating, Redroot pigweed (pigweed; [5]) | Morningglory plant response rating (morningglory; [1]) | Wild oats plant response rating (wild oat; [4])
2: Plant response rating, Corn (corn; [5]) | Cocklebur plant response rating (cocklebur; [3]) | Rape plant response rating (rape; [1]) | Nutsedge plant response rating (purple nutsedge; [8]) | Wheat plant response rating (wheat; [2]) | Redroot pigweed plant response rating (pigweed; [1]) | Redroot pigweed plant response rating (pigweed; [4]) | Sugarbeets plant response rating (sugar beet; [4])
10: Plant response rating, Blackgrass (blackgrass; [5]) | Plant response rating, Blackgrass (blackgrass; [6]) | Blackgrass plant response rating (blackgrass; [7]) | Plant response rating, Crabgrass (crabgrass; [5]) | Crabgrass plant response rating (crabgrass; [7]) | Plant response rating, Rape (rape; [6]) | Rape plant response rating (rape; [7]) | B. signalgrass plant response rating (surinam grass; [4]) | Plant response rating, B. signalgrass (surinam grass; [6]) | Redroot pigweed plant response rating (pigweed; [7]) | Morningglory plant response rating (morningglory; [3]) | Morningglory plant response rating (morningglory; [8]) | Wild oats plant response rating (wild oat; [7]) | Giant foxtail plant response rating (giant foxtail; [4]) | Plant response rating, Giant foxtail (giant foxtail; [5]) | Plant response rating, Giant foxtail (giant foxtail; [6]) | Giant foxtail plant response rating (giant foxtail; [7])
